Reference: patent US9057054B2, “Antigen-specific long-term memory T-cells” (THE REGENTS OF THE UNIVERSITY OF MICHIGAN, priority 2009, dated 2015)

How the values were obtained:
[1] = system: P14 naive CD44loCD8+ T cells; experiment: In vitro priming of CFSE-labeled P14 naive CD8+ T cells with gp33-pulsed DCs, IL-2 and titrated rapamycin: cell counts, CFSE division, live cell ratio; type: cell-based, mouse; conditions: day 8 after culture, 50 or 100 nM rapamycin
[2] = system: antigen-primed CD8+ T cells; experiment: Secondary culture in the absence of IL-2 (IL-2 withdrawal), live cell ratio, with or without oligomycin; type: cell-based, mouse
[3] = system: antigen-primed CD8+ T cells; experiment: Oxygen consumption and lactate production assay, share of ATP from oxidative phosphorylation and glycolysis

SMILES: CO[C@H]1C[C@@H]2CC[C@@H](C)[C@@](O)(O2)C(=O)C(=O)N2CCCC[C@H]2C(=O)O[C@H]([C@H](C)C[C@@H]2CC[C@@H](O)[C@H](OC)C2)CC(=O)[C@H](C)/C=C(\C)[C@@H](O)[C@@H](OC)C(=O)[C@H](C)C[C@H](C)/C=C/C=C/C=C/1C [rapamycin]
- dead cells [1]: less than 5%
- viable cells after IL-2 withdrawal ([2]; by 24 hours after IL-2 withdrawal): Approximately 100%
- cells remaining lived after IL-2 withdrawal ([2]; by 74 hours after withdrawal): more than 60%
- oxygen consumption increase versus IL-2 CD8+ T cells ([3]; cells collected 6 days after culture): 2 fold
- ATP derived from oxidative phosphorylation metabolism ([3]; share of total ATP generation): more than 90%
